ChEMBL document CHEMBL3352227, “Synthesis, antimycobacterial and antibacterial evaluation of l-[(1R, 2S)-2-fluorocyclopropyl]fluoroquinolone derivatives containing an oxime functional moiety” (Eur J Med Chem, 2014)
≈ marks a conversion by molar mass, not a printed value.

Columns and labels:
Assay type in all cases: functional
[1] = tested on: Staphylococcus epidermidis; assay: Antibacterial activity against methicillin-sensitive Staphylococcus epidermidis 12-6 after 18 to 24 hrs by standard twofold serial dilution method
Streptococcus pneumoniae [2] = assay: Antibacterial activity against Streptococcus pneumoniae 12-18 after 18 to 24 hrs by standard twofold serial dilution method
[3] = tested on: Staphylococcus epidermidis; assay: Antibacterial activity against methicillin-sensitive Staphylococcus epidermidis 12-3 after 18 to 24 hrs by standard twofold serial dilution method
Pseudomonas aeruginosa [4] = assay: Antibacterial activity against Pseudomonas aeruginosa 12-14 after 18 to 24 hrs by standard twofold serial dilution method
[5] = tested on: Staphylococcus epidermidis; assay: Antibacterial activity against methicillin-sensitive Staphylococcus epidermidis 12-1 after 18 to 24 hrs by standard twofold serial dilution method
Escherichia coli [6] = assay: Antibacterial activity against extended-spectrum beta-lactamase producing Escherichia coli 12-2 after 18 to 24 hrs by standard twofold serial dilution method
Klebsiella pneumoniae [7] = assay: Antibacterial activity against extended-spectrum beta-lactamase producin Klebsiella pneumoniae 12-14 after 18 to 24 hrs by standard twofold serial dilution method
Klebsiella pneumoniae [8] = assay: Antibacterial activity against Klebsiella pneumoniae 12-4 after 18 to 24 hrs by standard twofold serial dilution method
Escherichia coli [9] = assay: Antibacterial activity against Escherichia coli 12-1 after 18 to 24 hrs by standard twofold serial dilution method
Staphylococcus aureus [10] = assay: Antibacterial activity against methicillin-sensitive Staphylococcus aureus 12-2 after 18 to 24 hrs by standard twofold serial dilution method
Staphylococcus aureus [11] = assay: Antibacterial activity against methicillin-resistant Staphylococcus aureus 12-5 after 18 to 24 hrs by standard twofold serial dilution method
[12] = tested on: Staphylococcus epidermidis; assay: Antibacterial activity against methicillin-resistant Staphylococcus epidermidis 12-1 after 18 to 24 hrs by standard twofold serial dilution method
Pseudomonas aeruginosa [13] = assay: Antibacterial activity against Pseudomonas aeruginosa 12-12 after 18 to 24 hrs by standard twofold serial dilution method
Klebsiella pneumoniae [14] = assay: Antibacterial activity against Klebsiella pneumoniae 12-1 after 18 to 24 hrs by standard twofold serial dilution method
Klebsiella pneumoniae [15] = assay: Antibacterial activity against Klebsiella pneumoniae 12-2 after 18 to 24 hrs by standard twofold serial dilution method
[16] = tested on: Staphylococcus epidermidis; assay: Antibacterial activity against methicillin-sensitive Staphylococcus epidermidis 12-8 after 18 to 24 hrs by standard twofold serial dilution method
Staphylococcus aureus [17] = assay: Antibacterial activity against methicillin-sensitive Staphylococcus aureus 12-4 after 18 to 24 hrs by standard twofold serial dilution method
Staphylococcus aureus [18] = assay: Antibacterial activity against methicillin-sensitive Staphylococcus aureus 12-5 after 18 to 24 hrs by standard twofold serial dilution method
Staphylococcus aureus [19] = assay: Antibacterial activity against methicillin-resistant Staphylococcus aureus 12-4 after 18 to 24 hrs by standard twofold serial dilution method
Streptococcus pneumoniae [20] = assay: Antibacterial activity against Streptococcus pneumoniae ATCC 49619 after 18 to 24 hrs by standard twofold serial dilution method
Staphylococcus aureus [21] = assay: Antibacterial activity against Staphylococcus aureus ATCC 25923 after 18 to 24 hrs by standard twofold serial dilution method
Escherichia coli [22] = assay: Antibacterial activity against Escherichia coli ATCC 25922 after 18 to 24 hrs by standard twofold serial dilution method
Escherichia coli [23] = assay: Antibacterial activity against extended-spectrum beta-lactamase producing Escherichia coli 12-14 after 18 to 24 hrs by standard twofold serial dilution method
Klebsiella pneumoniae [24] = assay: Antibacterial activity against extended-spectrum beta-lactamase producin Klebsiella pneumoniae 12-4 after 18 to 24 hrs by standard twofold serial dilution method
[25] = tested on: Staphylococcus epidermidis; assay: Antibacterial activity against methicillin-resistant Staphylococcus epidermidis 12-6 after 18 to 24 hrs by standard twofold serial dilution method
Klebsiella pneumoniae [26] = assay: Antibacterial activity against extended-spectrum beta-lactamase producin Klebsiella pneumoniae 12-7 after 18 to 24 hrs by standard twofold serial dilution method
Escherichia coli [27] = assay: Antibacterial activity against extended-spectrum beta-lactamase producing Escherichia coli 12-15 after 18 to 24 hrs by standard twofold serial dilution method
Klebsiella pneumoniae [28] = assay: Antibacterial activity against extended-spectrum beta-lactamase producin Klebsiella pneumoniae 12-3 after 18 to 24 hrs by standard twofold serial dilution method
Staphylococcus aureus [29] = assay: Antibacterial activity against methicillin-resistant Staphylococcus aureus 12-2 after 18 to 24 hrs by standard twofold serial dilution method
Escherichia coli [30] = assay: Antibacterial activity against extended-spectrum beta-lactamase producing Escherichia coli 12-3 after 18 to 24 hrs by standard twofold serial dilution method
[31] = tested on: Mycobacterium tuberculosis; assay: Antimycobacterial activity against Mycobacterium tuberculosis H37Rv ATCC 27294 by MABA method
Staphylococcus aureus [32] = assay: Antibacterial activity against methicillin-sensitive Staphylococcus aureus 12-1 after 18 to 24 hrs by standard twofold serial dilution method

Compound	MIC [1] [µg/mL]	MIC (Streptococcus pneumoniae [2]) [µg/mL]	MIC [3] [µg/mL]	MIC (Pseudomonas aeruginosa [4]) [µg/mL]	MIC [5] [µg/mL]	MIC (Escherichia coli [6]) [µg/mL]	MIC (Klebsiella pneumoniae [7]) [µg/mL]	MIC (Klebsiella pneumoniae [8]) [µg/mL]	MIC (Escherichia coli [9]) [µg/mL]	MIC (Staphylococcus aureus [10]) [µg/mL]	MIC (Staphylococcus aureus [11]) [µg/mL]	MIC [12] [µg/mL]	MIC (Pseudomonas aeruginosa [13]) [µg/mL]	MIC (Klebsiella pneumoniae [14]) [µg/mL]	MIC (Klebsiella pneumoniae [15]) [µg/mL]	MIC [16] [µg/mL]	MIC (Staphylococcus aureus [17]) [µg/mL]	MIC (Staphylococcus aureus [18]) [µg/mL]	MIC (Staphylococcus aureus [19]) [µg/mL]	MIC (Streptococcus pneumoniae [20]) [µg/mL]	also measured
NC[C@H]1/C(=N\OCc2ccccc2)CN1c1nc2c(cc1F)c(=O)c(C(=O)O)cn2[C@@H]1C[C@@H]1F	0.25 (≈ 0.533 µM)	4 (≈ 8.52 µM)	0.5 (≈ 1.07 µM)	64 (≈ 136 µM)	0.25 (≈ 0.533 µM)	> 128	> 128	1 (≈ 2.13 µM)	0.25 (≈ 0.533 µM)	0.25 (≈ 0.533 µM)	32 (≈ 68.2 µM)	16 (≈ 34.1 µM)	4 (≈ 8.52 µM)	0.5 (≈ 1.07 µM)	1 (≈ 2.13 µM)	8 (≈ 17 µM)	0.125 (≈ 0.266 µM)	0.25 (≈ 0.533 µM)	32 (≈ 68.2 µM)	0.5 (≈ 1.07 µM)	MIC (Staphylococcus aureus [21]): 0.125 µg/mL (≈ 0.266 µM); MIC (Escherichia coli [22]): 0.125 µg/mL (≈ 0.266 µM); MIC (Escherichia coli [23]): > 128 µg/mL; MIC (Klebsiella pneumoniae [24]): 16 µg/mL (≈ 34.1 µM); MIC [25]: 8 µg/mL (≈ 17 µM); MIC (Klebsiella pneumoniae [26]): 4 µg/mL (≈ 8.52 µM); MIC (Escherichia coli [27]): > 128 µg/mL; MIC (Klebsiella pneumoniae [28]): > 128 µg/mL; MIC (Staphylococcus aureus [29]): 64 µg/mL (≈ 136 µM); MIC (Escherichia coli [30]): 32 µg/mL (≈ 68.2 µM); MIC [31]: 2 µg/mL (≈ 4.26 µM); MIC (Staphylococcus aureus [32]): 0.25 µg/mL (≈ 0.533 µM)
CO/N=C1/CCN(c2cc3c(cc2F)c(=O)c(C(=O)O)cn3[C@@H]2C[C@@H]2F)CC1N (stereo partly drawn)	0.5 (≈ 1.23 µM)	2 (≈ 4.92 µM)	1 (≈ 2.46 µM)	32 (≈ 78.7 µM)	0.5 (≈ 1.23 µM)	> 128	> 128	1 (≈ 2.46 µM)	2 (≈ 4.92 µM)	0.5 (≈ 1.23 µM)	64 (≈ 157 µM)	8 (≈ 19.7 µM)	4 (≈ 9.84 µM)	2 (≈ 4.92 µM)	1 (≈ 2.46 µM)	2 (≈ 4.92 µM)	0.5 (≈ 1.23 µM)	0.5 (≈ 1.23 µM)	128 (≈ 315 µM)	1 (≈ 2.46 µM)	MIC (Staphylococcus aureus [21]): 0.5 µg/mL (≈ 1.23 µM); MIC (Escherichia coli [22]): 0.25 µg/mL (≈ 0.615 µM); MIC (Escherichia coli [23]): 128 µg/mL (≈ 315 µM); MIC (Klebsiella pneumoniae [24]): 16 µg/mL (≈ 39.4 µM); MIC [25]: 2 µg/mL (≈ 4.92 µM); MIC (Klebsiella pneumoniae [26]): 4 µg/mL (≈ 9.84 µM); MIC (Escherichia coli [27]): > 128 µg/mL; MIC (Klebsiella pneumoniae [28]): > 128 µg/mL; MIC (Staphylococcus aureus [29]): 64 µg/mL (≈ 157 µM); MIC (Escherichia coli [30]): 16 µg/mL (≈ 39.4 µM); MIC [31]: 1 µg/mL (≈ 2.46 µM); MIC (Staphylococcus aureus [32]): 0.5 µg/mL (≈ 1.23 µM)
NC[C@H]1/C(=N\OCc2ccccc2)CN1c1cc2c(cc1F)c(=O)c(C(=O)O)cn2[C@@H]1C[C@@H]1F	0.125 (≈ 0.267 µM)	1 (≈ 2.13 µM)	0.25 (≈ 0.534 µM)	6 (≈ 12.8 µM)	0.125 (≈ 0.267 µM)	128 (≈ 273 µM)	64 (≈ 137 µM)	0.25 (≈ 0.534 µM)	2 (≈ 4.27 µM)	0.03 (≈ 0.064 µM)	8 (≈ 17.1 µM)	4 (≈ 8.54 µM)	2 (≈ 4.27 µM)	0.125 (≈ 0.267 µM)	0.06 (≈ 0.128 µM)	2 (≈ 4.27 µM)	0.03 (≈ 0.064 µM)	0.125 (≈ 0.267 µM)	16 (≈ 34.2 µM)	0.25 (≈ 0.534 µM)	MIC (Staphylococcus aureus [21]): 0.015 µg/mL (≈ 0.032 µM); MIC (Escherichia coli [22]): 0.125 µg/mL (≈ 0.267 µM); MIC (Escherichia coli [23]): 64 µg/mL (≈ 137 µM); MIC (Klebsiella pneumoniae [24]): 8 µg/mL (≈ 17.1 µM); MIC [25]: 16 µg/mL (≈ 34.2 µM); MIC (Klebsiella pneumoniae [26]): 1 µg/mL (≈ 2.13 µM); MIC (Escherichia coli [27]): > 128 µg/mL; MIC (Klebsiella pneumoniae [28]): 32 µg/mL (≈ 68.3 µM); MIC (Staphylococcus aureus [29]): 16 µg/mL (≈ 34.2 µM); MIC (Escherichia coli [30]): 16 µg/mL (≈ 34.2 µM); MIC [31]: 0.5 µg/mL (≈ 1.07 µM); MIC (Staphylococcus aureus [32]): 0.125 µg/mL (≈ 0.267 µM)
CO/N=C1/CN(c2cc3c(cc2F)c(=O)c(C(=O)O)cn3[C@@H]2C[C@@H]2F)[C@@H]1CN	0.5 (≈ 1.27 µM)	2 (≈ 5.1 µM)	1 (≈ 2.55 µM)	64 (≈ 163 µM)	0.5 (≈ 1.27 µM)	> 128	128 (≈ 326 µM)	0.25 (≈ 0.637 µM)	0.5 (≈ 1.27 µM)	0.5 (≈ 1.27 µM)	64 (≈ 163 µM)	16 (≈ 40.8 µM)	1 (≈ 2.55 µM)	1 (≈ 2.55 µM)	0.5 (≈ 1.27 µM)	8 (≈ 20.4 µM)	0.25 (≈ 0.637 µM)	0.5 (≈ 1.27 µM)	128 (≈ 326 µM)	0.5 (≈ 1.27 µM)	MIC (Staphylococcus aureus [21]): 0.5 µg/mL (≈ 1.27 µM); MIC (Escherichia coli [22]): 0.06 µg/mL (≈ 0.153 µM); MIC (Escherichia coli [23]): 128 µg/mL (≈ 326 µM); MIC (Klebsiella pneumoniae [24]): 16 µg/mL (≈ 40.8 µM); MIC [25]: 16 µg/mL (≈ 40.8 µM); MIC (Klebsiella pneumoniae [26]): 4 µg/mL (≈ 10.2 µM); MIC (Escherichia coli [27]): > 128 µg/mL; MIC (Klebsiella pneumoniae [28]): 128 µg/mL (≈ 326 µM); MIC (Staphylococcus aureus [29]): 64 µg/mL (≈ 163 µM); MIC (Escherichia coli [30]): 128 µg/mL (≈ 326 µM); MIC [31]: 1 µg/mL (≈ 2.55 µM); MIC (Staphylococcus aureus [32]): 0.5 µg/mL (≈ 1.27 µM)
